The target of one assay is mAChR M2 (Homo sapiens (Human), UniProt P08172). As to the kind of experiment: In vitro cellular calcium flux assay, PAM, NAM and agonist modes, mAChR M2. Type of assay: cell-based. The protocol: (§1) Baby hamster kidney cells stably expressing human or rat mAChR M1 to M5 were utilised for primary and selectivity profiling activities. mAChR M2 and M4 cell lines also stably expressed the chimeric Gαqi5 G-protein.
(§2) Human mAChR M1, M3, M5 and rat M1 cells were grown in low glucose Dulbecco's Modified Eagle's Medium (DMEM) medium plus heat inactivated 10% fetal bovine serum (HI FBS) and 500 μg/ml hygromycin B^1. Human mAChR M2 and M4 cells were maintained as above with^2 the addition of 500 μg/ml G418 to the media. Cells were maintained in culture at 37° C./5% CO2 and passaged twice weekly by treatment with 0.05% Trypsin/EDTA detachment solution, centrifugation (200 g, 5 min) and re-suspension in fresh media. Following cell expansion, cells were cryopreserved at −80° C. by treatment with 0.05% Trypsin/EDTA detachment solution, centrifugation (200 g, 5 min) and re-suspension of the pellet in freezing media (90% HI FBS/10% DMSO^3) at 15E6 cells/ml^4.
(§3) Prior to assaying, cells were prepared by thawing at 37° C. in a water bath, centrifugation (200 g, 5 min) and re-suspension of the pellet in fresh media. 15000 cells per well were seeded in black, clear bottomed 384-well Greiner Bio-One plates in plating medium (DMEM/10% HI FBS) and incubated overnight at 37 C/5% CO2.
(§4) On the day of the assay, media was removed from each well and replaced with 50 μl^5 assay buffer (HBSS with 20 mM HEPES and 2.5 mM Probenecid) containing the calcium indicator, Calcium 4 (Molecular Devices). Cells were then incubated at 37° C./5% CO2 for 30 min and at room temperature.
(§5) Compound preparation was carried out by generation of 11-point, 1 in 3 serial dilution concentration response curves in 100% DMSO. Compound was then diluted 1 in 65^6 with assay buffer (HBSS with 20 mM HEPES and 2.5 mM Probenecid) prior to the addition of 10 ul^7 to the cells using a Tetra fluorometric imaging plate reader (Molecular Devices)^8. Compound driven increases in intracellular calcium flux was measured as an increase in fluorescence (494Ex, 516Em)^9.
(§6) Positive allosteric modulator pEC50 values and antagonist pIC50 values for each compound were then determined. […] The points of modification and the alternate reagents, concentrations or equipment employed in these examples were: ^1200 μg/ml hygromycin B; ^2G418 not added; ^3CELLBANKER 1; ^410E6; ^5 40 μl; ^6 1 in 99; ^7 20 μl; ^8FDSS6000 (Hamamatsu Photonics); ^9(480Ex, 540Em); ^10Spotfire (TIBCO).
(§7) Certain compounds were tested in PAM, NAM and agonist modes against mAChR M2, M3, M4 and M5.
For orientation: Calcium flux is commonly read through the fluorescence of an indicator in the cells.

In another assay the target is mAChR M1 (Homo sapiens, UniProt P11229). Nature of the assay: In vitro cellular calcium flux assay, positive allosteric modulation of mAChR M1. Type of assay: cell-based. The settings on record: BHK cells expressing mAChR M1; EC20 carbachol; Examples 76-80 and 82-89 slightly modified procedure. An outline of the steps: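 Baby hamster kidney cells stably expressing human mAChR M1, loaded with Calcium 4 dye in HBSS/20 mM HEPES/2.5 mM probenecid for 30 min at 37 °C. An 11-point 1-in-3 compound dilution series was added and calcium rise read as fluorescence; positive allosteric modulator pEC50 and antagonist pIC50 derived.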

Another assay concerns the target mAChR M3 (Homo sapiens (Human), UniProt P20309). As to the kind of experiment: In vitro cellular calcium flux assay, PAM, NAM and agonist modes, mAChR M3. It counts as cell-based. The procedure: as §1, §2, §3, §4, §5, §6, §7
In the next assay the target is mAChR M4 (Homo sapiens (Human), UniProt P08173). As to the kind of experiment: In vitro cellular calcium flux assay, PAM, NAM and agonist modes, mAChR M4. Type of assay: cell-based. The protocol:
as §1, §2, §3, §4, §5, §6, §7

The subject of another assay is Male Lister Hooded rats. Nature of the assay: Novel Object Recognition test. It counts as in vivo. The note with it: rat, 24 h delay. The protocol: The Novel Object Recognition test (NOR) is based on the greater spontaneous exploration of a novel object, compared with a familiar object, observed in rodents (Behav. Brain Res., 1988, 31(1), 47-59). […] Therefore, it is considered to be analogous to recognition memory tests used in human clinical testing. Male Lister Hooded rats were assessed for object recognition in a test apparatus comprising of a perspex test arena housed within a sound attenuating chamber. Video images of behaviour were captured by digital camera and recorded to a computer. Rats were habituated to the test arena on four occasions prior to testing. Habituation sessions replicated the test day sequence exactly with the exception of object presentation. On test days, each rat was placed into the test arena and 3 minutes later the rat was presented with two identical objects (plastic shapes). The time spent actively exploring the objects during a 3-minute test period (T1) was recorded. Following T1 rats were returned to home cages. After 24 hours each rat was again placed in the test arena and 3 minutes later was presented with one of the now familiar objects and a novel object, and again the time spent actively exploring the objects during a 3-minute test period (T2) was recorded. The presentation order and position of objects (left/right) was randomised within groups to prevent bias from order or place preference. Objects were cleaned with 70% ethanol solution between trials to remove any olfactory/taste cues. Compounds were administered by oral gavage at an appropriate pre-treatment time prior to T1 and T2 (n=12) at dosage ranges between 0.03 and 3 mg/kg. In some experiments the 5-HT6 receptor antagonist N-(3,5-dichloro-2-methoxyphenyl)-4-methoxy-3-(piperazin-1-yl)benzenesulfonamide (CAS 402713-80-8) (10 mg/kg p.o.; 4 h pre-treatment time) was included as a positive control. Vehicle controls (1% methylcellulose in water) were included for comparison in each study. Results are expressed as the d2 index (difference in time spent exploring novel and familiar objects/total object exploration in T2).

The target of a further assay is mAChR M5 (Homo sapiens (Human), UniProt P08912). As to the kind of experiment: In vitro cellular calcium flux assay, PAM, NAM and agonist modes, mAChR M5. Type of assay: cell-based. The procedure:
as §1, §2, §3, §4, §5, §6, §7

A word on the EC50: it is the concentration giving half of the maximal effect.

Each structure is given as a SMILES string.

mAChR M4, sequence (P08173 whole entry): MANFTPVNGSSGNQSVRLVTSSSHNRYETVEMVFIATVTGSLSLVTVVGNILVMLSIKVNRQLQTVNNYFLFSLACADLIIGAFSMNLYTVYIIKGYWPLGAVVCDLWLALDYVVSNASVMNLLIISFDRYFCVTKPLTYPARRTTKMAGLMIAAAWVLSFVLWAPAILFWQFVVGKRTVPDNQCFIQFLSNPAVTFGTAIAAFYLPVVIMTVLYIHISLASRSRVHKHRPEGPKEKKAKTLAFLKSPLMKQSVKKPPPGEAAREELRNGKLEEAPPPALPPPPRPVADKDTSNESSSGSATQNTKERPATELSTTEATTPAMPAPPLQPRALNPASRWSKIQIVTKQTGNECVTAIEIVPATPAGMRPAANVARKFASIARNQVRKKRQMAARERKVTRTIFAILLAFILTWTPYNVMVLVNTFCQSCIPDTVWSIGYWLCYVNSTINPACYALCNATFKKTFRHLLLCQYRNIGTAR
mAChR M5, sequence (P08912 whole entry): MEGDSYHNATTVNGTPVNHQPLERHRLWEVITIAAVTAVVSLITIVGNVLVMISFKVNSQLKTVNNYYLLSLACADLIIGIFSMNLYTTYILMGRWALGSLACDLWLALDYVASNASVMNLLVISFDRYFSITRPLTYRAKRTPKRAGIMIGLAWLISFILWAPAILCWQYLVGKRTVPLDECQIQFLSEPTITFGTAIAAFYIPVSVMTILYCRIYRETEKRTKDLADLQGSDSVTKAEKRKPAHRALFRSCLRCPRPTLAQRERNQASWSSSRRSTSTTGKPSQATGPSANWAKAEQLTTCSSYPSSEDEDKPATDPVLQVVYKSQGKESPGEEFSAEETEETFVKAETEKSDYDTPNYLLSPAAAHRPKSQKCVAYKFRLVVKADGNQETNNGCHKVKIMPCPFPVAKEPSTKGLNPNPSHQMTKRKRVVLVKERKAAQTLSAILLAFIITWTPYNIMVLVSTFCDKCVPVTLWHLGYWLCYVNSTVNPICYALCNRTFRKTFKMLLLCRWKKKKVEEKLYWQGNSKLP
mAChR M2, sequence (P08172 whole entry): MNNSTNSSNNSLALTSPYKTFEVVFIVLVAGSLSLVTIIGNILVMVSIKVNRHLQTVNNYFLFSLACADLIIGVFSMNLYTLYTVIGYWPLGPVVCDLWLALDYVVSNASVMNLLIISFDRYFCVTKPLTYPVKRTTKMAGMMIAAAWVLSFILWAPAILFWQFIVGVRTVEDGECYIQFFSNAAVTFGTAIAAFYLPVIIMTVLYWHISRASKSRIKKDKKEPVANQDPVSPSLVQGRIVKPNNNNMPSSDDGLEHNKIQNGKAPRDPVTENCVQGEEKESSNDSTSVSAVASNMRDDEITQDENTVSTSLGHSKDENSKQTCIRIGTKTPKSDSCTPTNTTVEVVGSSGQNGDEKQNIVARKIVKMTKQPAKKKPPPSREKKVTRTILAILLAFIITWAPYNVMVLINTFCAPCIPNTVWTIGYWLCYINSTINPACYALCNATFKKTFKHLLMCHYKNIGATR
mAChR M1, sequence (P11229 whole entry, looked up): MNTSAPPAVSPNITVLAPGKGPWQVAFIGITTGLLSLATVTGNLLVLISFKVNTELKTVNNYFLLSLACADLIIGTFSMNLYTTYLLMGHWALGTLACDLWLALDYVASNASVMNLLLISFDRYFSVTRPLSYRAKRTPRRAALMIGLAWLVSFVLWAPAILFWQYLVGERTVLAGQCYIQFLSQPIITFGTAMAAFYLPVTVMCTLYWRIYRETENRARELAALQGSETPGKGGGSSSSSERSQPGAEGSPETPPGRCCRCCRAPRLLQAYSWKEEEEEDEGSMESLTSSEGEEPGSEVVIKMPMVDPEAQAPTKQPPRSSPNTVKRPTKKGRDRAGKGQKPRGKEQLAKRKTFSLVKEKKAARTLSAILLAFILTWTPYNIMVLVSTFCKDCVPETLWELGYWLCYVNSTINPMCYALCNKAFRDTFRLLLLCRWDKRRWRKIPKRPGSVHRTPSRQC
mAChR M3, sequence (P20309 whole entry, looked up): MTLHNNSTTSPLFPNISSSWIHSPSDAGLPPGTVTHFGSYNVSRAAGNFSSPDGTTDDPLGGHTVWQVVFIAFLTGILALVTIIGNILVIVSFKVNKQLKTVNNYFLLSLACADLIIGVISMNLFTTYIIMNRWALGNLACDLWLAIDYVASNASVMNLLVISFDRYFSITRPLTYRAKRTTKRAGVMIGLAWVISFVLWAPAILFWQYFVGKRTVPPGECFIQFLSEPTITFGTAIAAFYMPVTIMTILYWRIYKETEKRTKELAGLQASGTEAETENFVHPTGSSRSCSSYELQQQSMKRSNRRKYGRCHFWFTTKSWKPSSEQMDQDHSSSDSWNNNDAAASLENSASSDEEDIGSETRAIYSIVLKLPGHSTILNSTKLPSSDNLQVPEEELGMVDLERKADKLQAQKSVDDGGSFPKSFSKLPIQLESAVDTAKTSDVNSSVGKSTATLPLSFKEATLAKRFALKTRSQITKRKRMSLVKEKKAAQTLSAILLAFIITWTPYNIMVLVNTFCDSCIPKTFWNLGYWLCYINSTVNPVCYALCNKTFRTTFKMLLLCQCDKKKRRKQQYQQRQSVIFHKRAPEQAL

In the case of `O=C(N[C@H]1CCCC[C@@H]1O)c1cn(Cc2cccc(F)c2F)c2cccnc12` [Example 8, 1-(2,3-Difluorobenzyl)-N-((1S,2S)-2-hydroxycyclohexyl)-1H-pyrrolo[3,2-b]pyridine-3-carboxamide], the half-maximal effective concentration (EC50) at mAChR M2, at mAChR M3, on mAChR M4 and on mAChR M5 was over 10 µM each time. For the same compound, the “pEC50 for positive allosteric modulation” value on mAChR M1 stood at 6.5. Besides, the “d2 index [mean ± SEM]” value is “[0.00 ± 0.07]” with Male Lister Hooded rats (0.03 mg/kg p.o.), “[0.09 ± 0.06]” with Male Lister Hooded rats (0.1 mg/kg p.o.) and “[0.34 ± 0.06]***” with Male Lister Hooded rats (0.3 mg/kg p.o.).
Turning to `Cc1ccnc2c(C(=O)N[C@H]3CCCC[C@@H]3O)cn(Cc3ccc(F)cc3)c12` [Example 10, 1-(4-Fluorobenzyl)-N-((1S,2S)-2-hydroxycyclohexyl)-7-methyl-1H-pyrrolo[3,2-b]pyridine-3-carboxamide], the half-maximal effective concentration (EC50) at mAChR M2, at mAChR M3, at mAChR M4 and on mAChR M5 was over 10 µM each time. Also, on mAChR M1, the “pEC50 for positive allosteric modulation” value was 7.7. Moreover, the entries for the “d2 index [mean ± SEM]” value in the assay on Male Lister Hooded rats (0.03 mg/kg p.o.), with Male Lister Hooded rats (0.1 mg/kg p.o.) and with Male Lister Hooded rats (0.3 mg/kg p.o.) were “[0.18 ± 0.10]”, “[0.18 ± 0.09]” and “[0.30 ± 0.08]**”, respectively.
Take `Cc1ccnc2c(C(=O)N[C@H]3CCCC[C@@H]3O)cn(Cc3cccc(F)c3F)c12` [Example 11, 1-(2,3-Difluorobenzyl)-N-((1S,2S)-2-hydroxycyclohexyl)-7-methyl-1H-pyrrolo[3,2-b]pyridine-3-carboxamide]: the EC50 at mAChR M2, on mAChR M3, on mAChR M4 and on mAChR M5 was over 10 µM each time. Also, on mAChR M1, the “pEC50 for positive allosteric modulation” value came out at 6.9. Also, the results for the “d2 index [mean ± SEM]” value in the assay with Male Lister Hooded rats (0.3 mg/kg p.o.), in the assay with Male Lister Hooded rats (1 mg/kg p.o.) and with Male Lister Hooded rats (3 mg/kg p.o.) were “[0.24 ± 0.06]”, “[0.24 ± 0.07]” and “[0.31 ± 0.06]**”, respectively.
Consider `COc1ccc(Cn2cc(C(=O)N[C@H]3CCCC[C@@H]3O)c3nccc(C)c32)cc1` [Example 12, N-((1S,2S)-2-Hydroxycyclohexyl)-1-(4-methoxybenzyl)-7-methyl-1H-pyrrolo[3,2-b]pyridine-3-carboxamide], for which the EC50 on mAChR M2, at mAChR M3, at mAChR M4 and at mAChR M5 was over 10 µM each time. The “pEC50 for positive allosteric modulation” value on mAChR M1 came to 7.7. Also, the “d2 index [mean ± SEM]” value in the assay on Male Lister Hooded rats (0.3 mg/kg p.o.) was “[0.13 ± 0.06]”; with Male Lister Hooded rats (1 mg/kg p.o.) it was “[0.30 ± 0.05]***”; in the assay with Male Lister Hooded rats (3 mg/kg p.o.), “[0.33 ± 0.06]***”.
For `COc1ccc(Cn2cc(C(=O)N[C@H]3CCCC[C@@H]3O)c3nccc(C)c32)cc1F` [Example 13, 1-(3-Fluoro-4-methoxybenzyl)-N-((1S,2S)-2-hydroxycyclohexyl)-7-methyl-1H-pyrrolo[3,2-b]pyridine-3-carboxamide], the EC50 on mAChR M2, at mAChR M3, at mAChR M4 and on mAChR M5 was over 10 µM each time. The “pEC50 for positive allosteric modulation” value at mAChR M1 is listed as 7.9. Further, the “d2 index [mean ± SEM]” value in the assay on Male Lister Hooded rats (0.3 mg/kg p.o.) is “[0.09 ± 0.05]”; in the assay with Male Lister Hooded rats (1 mg/kg p.o.), “[0.13 ± 0.07]”; with Male Lister Hooded rats (3 mg/kg p.o.) it was “[0.25 ± 0.09]*”.

For the origin of these results see patent US10072005B2, “4-azaindole derivatives” (EISAI R&D MANAGEMENT CO., LTD., priority 2013, dated 2018).
